Test results published in patent publication US8173131B2, “Compositions and methods for modulating RSV infection and immunity” (PerkinElmer Health Sciences, Inc., priority 2000, dated 2012).

B1: GHIS: purified recombinant soluble polyhistidine-tagged G glycoprotein from transfected Vero cells (protein)
chain: NHKVTPTTAIIQDATSQIKNTTPTYLTQNPQLGISPSNPSEITSQITTILASTTPGVKSTLQSTTVKTKNTTTTQTQPSKPTTKQRQNKPPSKPNNDFHFEVFNFVPCSICSNNPTCWAICKRIPNKKPGKKTTTKPTKKPTLKTTKKDPKPQTTKSKEVPTTKPTEEPTINTTKTNIITTLLTSNTTGNPELTSQMETFHSTSSEGNPSPSQVSTTSEYPSQPSSPPNTPRQ
modifications: left off: small tags and cut ends
notes: purified recombinant soluble polyhistidine-tagged G glycoprotein from transfected Vero cells

Assays:
RSV [1] = experiment: RSV plaque reduction by small molecule peptide inhibitors on Vero cells (Example II); format: cell-based, RSV/A2; details: heparin alone, 5 μg/ml
Experimental: Vero cells were treated with PBS, RT33, RT34, Δ+1, Δ−1 and EYp1 peptides (100 μm) in the presence (B) or absence of heparin (A) (5 μg/ml). Percentage inhibition was determined by dividing the mean plaque forming units (PFU) of treated Vero cells by the mean PFU of PBS-treated Vero cells.
Different concentrations of the G glycoprotein peptides and/or 5 μg/ml heparin (Sigma) were diluted in Dulbecco's phosphate buffered saline (D-PBS; GIBCO) and added to Vero cell monolayers for 1 h at 37° C. Pre-treated Vero cells were infected with 10^6 PFU of RSV/A2 diluted in serum-free DMEM (GIBCO) for 2 h at 37° C., after which DMEM (GIBCO) containing 10% FBS (Hyclone, Logan, Utah) was added, and the infected cells incubated at 37° C. for 3-4 days. Plaques were enumerated by immunostaining with monoclonal antibodies against the G and F glycoproteins (130-2G and 131-2A, respectively), as described (54,55).

RSV [2] = experiment: RSV plaque reduction assay on Vero cells (Example 1); format: cell-based, RSV/A2; details: 5 μg/ml
Experimental: Dilutions of Fkn (R&D systems), SDF-1 α (R&D systems), G glycoprotein, heparin (Sigma), G glycoprotein peptides and anti-CX3CR1 antibody were made in serum-free Dulbecco's Modified Eagle's Media (DMEM; GIBCO) containing 1% BSA (Sigma) and preincubated with the Vero cells for 1 h at 37° C. 50 μg of anti-CX3CR1 antibody or heat-inactivated (56° C., 30 min) normal rabbit sera (control) were used in all experiments. […] Dilutions of RSV were made in serum-free DMEM (GIBCO) and added to pretreated Vero cells for 2 h at 37° C. Following virus infection, DMEM (GIBCO) containing 10% FBS (Hyclone, Logan, Utah) was added to the wells. Plaques were enumerated using immunostaining for F and G glycoproteins using biotinylated monoclonal antibodies 131-2A (anti-F glycoprotein) and 130-2G (anti-G glycoprotein) as described^45.
RSV plaque reduction following treatment with G glycoprotein, Fkn, G glycoprotein peptides, anti-CX3CR1 antibody, SDF-1-α and/or heparin as described in Methods. Percent inhibition was determined from the mean plaque forming units (pfu) of treated Vero cells over saline-treated Vero cells using a dilution of RSV that would produce 40-80 pfu. p-values were determined using unpaired two-tailed analysis where p<0.05 is significant. The concentration of G glycoprotein was estimated using a molecular weight of 90 kD.

[3] = system: G glycoprotein binding to 293-CX3CR1 cells; set-up: species or system human; details: heparin 5 μg/ml alone
Experimental: All binding studies were done on ice and either G glycoprotein or human Fkn (R&D Diagnostics, Minneapolis, Minn.) were diluted between 1 nM-100 nM in PBS (GIBCO) containing 1% bovine serum albumin (Sigma) and incubated with the 293-CX3CR1 cells or 293 control cells for 30 min at 4° C. […] Without washing, 100 pM of either Fkn or G glycoprotein was added and incubated for 30 min at 4° C. The cells were washed, blocked with FcγRIII blocking antibody (HB197) for 30 min on ice, washed and stained as appropriate with either an anti-G glycoprotein monoclonal antibody cocktail (132-5B, 132-5G, 130-2G, 232-IF) or a biotinylated anti-G glycoprotein monoclonal antibody cocktail (130-2G, 131-2G) or anti-Fkn monoclonal antibody (51637.11; R&D Diagnostics). Concentrations of 1 μg of anti-G glycoprotein monoclonal antibody (131-2G)^34, rabbit anti-CX3CR1 sera^33, and anti-CX3CR1 monoclonal antibody containing 10 μg/ml heparin were used in all experiments. […] Staining was detected with absorbed FITC-goat anti-mouse (H & L chain) monoclonal antibody (PharMingen, San Diego, Calif.) or streptavidin-PE (PharMingen) using flow cytometry (FACScan, Becton-Dickinson, Mountain View, Calif.). A 76 amino acid ^125I-Fkn polypeptide comprising the […] (NEN, Boston, Mass.) was used in radioligand studies^33. As a control, the void volume following purified G glycoprotein passaged over an anti-G glycoprotein antibody (130-2G) affinity column was examined by flow cytometry for binding to either 293 or 293-CX3CR1 cells.
For peptide inhibition studies, a series of G glycoprotein peptides were identified in the amino acid sequence of the A2 strain of RSV (GENBANK, attachment protein locus 1912305, Table 4). The peptides were synthesized using a simultaneous, multiple solid-phase peptide synthesis method on a peptide synthesizer (Perkin-Elmer Applied Biosystems, Berkeley, Calif.), and tested for homogeneity by reverse-phase liquid chromatography and capillary electrophoresis (www.biotech.cdc.gov/protein/methods). Inhibition assays were performed as described for the binding studies above.
To determine if G glycoprotein bound 293-CX3CR1 cells via CX3CR1, the ability of four reagents (anti-CX3CR1 rabbit antiserum, anti-CX3CR1 monoclonal antibody (2A9-1), Fkn and a 76 amino acid 125-I-Fkn polypeptide containing the CX3C domain) that bind to CX3CR1 to block G glycoprotein binding to 293-CX3CR1 cells was examined. In addition, to determine if binding of G glycoprotein to 293-CX3CR1 cells was dependent upon the CX3C motif, G glycoprotein peptides with a single residue insertion (Δ+1) or deletion (Δ−1) in the CX3C motif and also peptides that lacked or included the CX3C motif (Table 4) were generated. This panel of peptides was analyzed for their ability to block G glycoprotein or Fkn binding to 293-CX3CR1 cells.
Inhibition of Fkn and G glycoprotein binding to 293-CX3CR1 cells by treatment with monoclonal antibodies to G glycoprotein or CX3CR1, or treatment with G glycoprotein, Fkn, or G glycoprotein peptides in the presence or absence of heparin as described in Methods. […] The concentration of G glycoprotein was estimated using a molecular weight of 90 kD.

[4] = biological target: T1, Fkn binding to 293-CX3CR1 cells (Homo sapiens, UniProt P49238); details: heparin 5 μg/ml alone
T1 construct: host or cells: HEK 293 cells stably transfected with CX3CR1

293 cells = experiment: G glycoprotein and Fkn binding to untransfected 293 control cells by flow cytometry; set-up: species or system human; details: for binding to 293 cells: wheat germ lectin column fraction (G, F glycoprotein) or purified recombinant polyhistidine-tagged G glycoprotein
Experimental: (§1) Purified G glycoprotein was examined for binding to 293-CX3CR1 cells^33. A pcDNA 3.1 plasmid containing the CX3CR1 gene and a neomycin resistance gene was used to stably transfect human embryonic kidney (HEK) cells. Neomycin resistance was used for selection and maintenance of plasmid transfection of human embryonic kidney cells.
(§2) All binding studies were done on ice and either G glycoprotein or human Fkn (R&D Diagnostics, Minneapolis, Minn.) were diluted between 1 nM-100 nM in PBS (GIBCO) containing 1% bovine serum albumin (Sigma) and incubated with the 293-CX3CR1 cells or 293 control cells for 30 min at 4° C. […] For inhibition studies, 100 pM-1 μM human Fkn or G glycoprotein was preincubated with the cells for 30 min at 4° C. Without washing, 100 pM of either Fkn or G glycoprotein was added and incubated for 30 min at 4° C. The cells were washed, blocked with FcγRIII blocking antibody (HB197) for 30 min on ice, washed and stained as appropriate with either an anti-G glycoprotein monoclonal antibody cocktail (132-5B, 132-5G, 130-2G, 232-IF) or a biotinylated anti-G glycoprotein monoclonal antibody cocktail (130-2G, 131-2G) or anti-Fkn monoclonal antibody (51637.11; R&D Diagnostics). Concentrations of 1 μg of anti-G glycoprotein monoclonal antibody (131-2G)^34, rabbit anti-CX3CR1 sera^33, and anti-CX3CR1 monoclonal antibody containing 10 μg/ml heparin were used in all experiments. […] Staining was detected with absorbed FITC-goat anti-mouse (H & L chain) monoclonal antibody (PharMingen, San Diego, Calif.) or streptavidin-PE (PharMingen) using flow cytometry (FACScan, Becton-Dickinson, Mountain View, Calif.). A 76 amino acid ^125I-Fkn polypeptide comprising the […] (NEN, Boston, Mass.) was used in radioligand studies^33. As a control, the void volume following purified G glycoprotein passaged over an anti-G glycoprotein antibody (130-2G) affinity column was examined by flow cytometry for binding to either 293 or 293-CX3CR1 cells.
(§3) The receptor for Fkn, CX3CR1, was previously identified and characterized using anti-CX3CR1 rabbit antiserum and CX3CR1-transfected human embryonic kidney cells (293-CX3CR1 cells)^33.

[5] = biological target: T2, CX3CR1 (293-CX3CR1 cells) (Homo sapiens, UniProt P49238); experiment: G glycoprotein and Fkn binding to 293-CX3CR1 cells by flow cytometry; details: for binding to 293-CX3CR1 cells: wheat germ lectin column fraction (G, F glycoprotein) or purified recombinant polyhistidine-tagged G glycoprotein
T2 construct: expressed in transfected cells
T2 sequence (P49238 1-355): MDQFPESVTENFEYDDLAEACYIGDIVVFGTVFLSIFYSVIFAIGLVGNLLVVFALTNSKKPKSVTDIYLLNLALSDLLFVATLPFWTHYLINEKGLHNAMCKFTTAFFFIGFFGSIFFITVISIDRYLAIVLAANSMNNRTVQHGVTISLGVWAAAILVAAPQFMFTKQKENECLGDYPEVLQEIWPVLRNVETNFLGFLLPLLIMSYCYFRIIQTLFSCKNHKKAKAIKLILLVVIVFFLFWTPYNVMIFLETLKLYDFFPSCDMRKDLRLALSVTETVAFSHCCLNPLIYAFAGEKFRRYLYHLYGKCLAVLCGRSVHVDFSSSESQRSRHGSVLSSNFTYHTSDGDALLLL
Experimental: as §1
as §2, with “[…])” for “Minn.) were diluted between 1 nM-100 nM in PBS (GIBCO)”
as §3
The percent Fkn-maximum binding was calculated using the equation: [% G (or Fkn) 293-CX3CR1]-[% G (or Fkn) 293]/[% Fkn (10 nM) 293-CX3CR1]-[% Fkn (10 nM) 293], where G=G glycoprotein, Fkn=fractalkine, 293-CX3CR1=CX3CR1-transfected 293, 293=untransfected 293. The concentration of G glycoprotein was estimated using a molecular weight of 90 kD.

[6] = 10 nM ligand, representative experiment, FIG. 1

Molecule	inhibition of plaque formation (RSV [1])	plaque inhibition (%) (RSV [2])	Range of Inhibition (%) of G glycoprotein binding [3]	Range of Inhibition (%) of Fkn binding [4]	binding to 293 cells (293 cells)	binding to 293-CX3CR1 cells [5]	percent positive staining of 293 cells (293 cells; [6])	percent positive staining of CX3CR1-293 cells [5, 6]
Heparin [reference compound]	80%	66%	78-84%	57-65%	–	–	–	–
F glycoprotein: RSV F (fusion) glycoprotein in wheat germ lectin column fraction	–	–	–	–	8%	12%	–	–
B1	–	–	–	–	7-12%	68-88%	12%	68%
